Columns and labels:
[1] = biological target: Carbonic anhydrase 5B, mitochondrial (Homo sapiens, UniProt Q9Y2D0)
Carbonic anhydrase 14 = Carbonic anhydrase 14 (Homo sapiens, UniProt Q9ULX7)
Carbonic anhydrase 12 = Carbonic anhydrase 12 (Homo sapiens, UniProt O43570)
Carbonic anhydrase 6 = Carbonic anhydrase 6 (Homo sapiens, UniProt P23280)
Carbonic anhydrase 3 = Carbonic anhydrase 3 (Homo sapiens, UniProt P07451)
Carbonic anhydrase 13 = Carbonic anhydrase 13 (Mus musculus, UniProt Q9D6N1)
[2] = biological target: Carbonic anhydrase 5A, mitochondrial (Homo sapiens, UniProt P35218)
Carbonic anhydrase 7 = Carbonic anhydrase 7 (Homo sapiens, UniProt P43166)
Carbonic anhydrase 7, sequence (P43166 whole entry): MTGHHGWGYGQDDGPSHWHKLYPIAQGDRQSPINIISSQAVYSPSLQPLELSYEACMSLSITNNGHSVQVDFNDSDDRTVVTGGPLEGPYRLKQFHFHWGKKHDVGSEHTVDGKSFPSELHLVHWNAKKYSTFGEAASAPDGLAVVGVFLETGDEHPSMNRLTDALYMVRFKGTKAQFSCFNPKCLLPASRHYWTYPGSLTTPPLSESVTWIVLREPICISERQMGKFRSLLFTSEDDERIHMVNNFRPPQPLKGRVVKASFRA

Carbonic anhydrase 13, sequence (Q9D6N1 whole entry): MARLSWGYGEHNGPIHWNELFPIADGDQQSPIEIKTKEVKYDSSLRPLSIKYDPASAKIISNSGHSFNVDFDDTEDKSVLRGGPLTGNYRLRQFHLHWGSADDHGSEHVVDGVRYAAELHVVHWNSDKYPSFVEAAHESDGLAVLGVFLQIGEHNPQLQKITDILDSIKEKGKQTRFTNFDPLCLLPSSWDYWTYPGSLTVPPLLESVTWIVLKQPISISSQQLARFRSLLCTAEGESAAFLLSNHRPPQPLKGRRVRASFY
Carbonic anhydrase 14, sequence (Q9ULX7 whole entry): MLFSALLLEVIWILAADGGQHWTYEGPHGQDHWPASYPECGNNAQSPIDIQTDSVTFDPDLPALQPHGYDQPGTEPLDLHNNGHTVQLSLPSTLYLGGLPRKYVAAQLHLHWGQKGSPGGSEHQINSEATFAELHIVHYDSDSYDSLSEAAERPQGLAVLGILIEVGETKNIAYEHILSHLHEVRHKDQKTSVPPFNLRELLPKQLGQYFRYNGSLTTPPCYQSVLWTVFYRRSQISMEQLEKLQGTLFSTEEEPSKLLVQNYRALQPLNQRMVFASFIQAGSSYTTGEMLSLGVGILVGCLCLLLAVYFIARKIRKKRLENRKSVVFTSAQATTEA
Carbonic anhydrase 6, sequence (P23280 whole entry): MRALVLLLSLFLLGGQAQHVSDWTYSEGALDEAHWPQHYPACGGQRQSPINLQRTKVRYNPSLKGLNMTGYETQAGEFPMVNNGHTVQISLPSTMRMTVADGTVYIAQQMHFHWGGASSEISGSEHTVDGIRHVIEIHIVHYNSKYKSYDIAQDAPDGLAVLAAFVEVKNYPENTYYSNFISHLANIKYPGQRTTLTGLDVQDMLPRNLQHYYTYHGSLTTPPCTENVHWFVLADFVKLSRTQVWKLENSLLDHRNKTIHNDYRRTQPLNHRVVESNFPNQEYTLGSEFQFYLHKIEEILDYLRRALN
Carbonic anhydrase 3, sequence (P07451 whole entry): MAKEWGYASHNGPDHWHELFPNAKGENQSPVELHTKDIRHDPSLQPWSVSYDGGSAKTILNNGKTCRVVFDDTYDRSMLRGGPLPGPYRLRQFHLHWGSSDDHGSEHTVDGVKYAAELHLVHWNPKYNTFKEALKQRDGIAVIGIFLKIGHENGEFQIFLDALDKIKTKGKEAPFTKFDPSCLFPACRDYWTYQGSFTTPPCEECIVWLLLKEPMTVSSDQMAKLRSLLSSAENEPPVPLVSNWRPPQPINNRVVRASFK
Carbonic anhydrase 5A, mitochondrial, sequence (P35218 whole entry): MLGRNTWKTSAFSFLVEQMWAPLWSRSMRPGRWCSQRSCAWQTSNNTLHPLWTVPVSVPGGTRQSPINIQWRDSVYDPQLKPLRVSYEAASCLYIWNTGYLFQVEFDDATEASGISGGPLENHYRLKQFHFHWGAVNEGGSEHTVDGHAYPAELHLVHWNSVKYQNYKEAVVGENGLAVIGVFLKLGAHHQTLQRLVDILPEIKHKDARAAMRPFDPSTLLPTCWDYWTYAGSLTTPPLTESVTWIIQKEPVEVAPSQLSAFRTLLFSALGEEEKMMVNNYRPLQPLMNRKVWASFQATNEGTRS
Carbonic anhydrase 12, sequence (O43570 whole entry): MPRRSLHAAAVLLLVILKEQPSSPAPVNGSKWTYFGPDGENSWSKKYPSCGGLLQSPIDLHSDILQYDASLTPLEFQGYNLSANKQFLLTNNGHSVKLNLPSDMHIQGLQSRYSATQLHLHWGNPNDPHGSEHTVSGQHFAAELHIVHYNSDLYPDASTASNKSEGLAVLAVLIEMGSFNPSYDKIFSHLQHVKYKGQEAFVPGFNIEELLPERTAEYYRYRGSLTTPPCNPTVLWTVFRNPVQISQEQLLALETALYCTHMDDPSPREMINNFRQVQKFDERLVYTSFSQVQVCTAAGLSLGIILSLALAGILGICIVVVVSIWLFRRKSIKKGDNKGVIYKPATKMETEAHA
Carbonic anhydrase 5B, mitochondrial, sequence (Q9Y2D0 whole entry): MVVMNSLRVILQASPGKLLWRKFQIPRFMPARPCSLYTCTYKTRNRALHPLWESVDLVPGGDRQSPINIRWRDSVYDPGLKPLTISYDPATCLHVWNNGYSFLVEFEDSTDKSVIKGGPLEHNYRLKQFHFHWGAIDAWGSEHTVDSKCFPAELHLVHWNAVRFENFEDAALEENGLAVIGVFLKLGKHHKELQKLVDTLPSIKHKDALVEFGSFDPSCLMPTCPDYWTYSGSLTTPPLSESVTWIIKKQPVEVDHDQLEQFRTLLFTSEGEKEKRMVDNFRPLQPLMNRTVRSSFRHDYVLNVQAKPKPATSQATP

Row | Compound | Ki [1] [nM] | Ki (Carbonic anhydrase 14) [nM] | Ki (Carbonic anhydrase 12) [nM] | Ki (Carbonic anhydrase 6) [nM] | Ki (Carbonic anhydrase 3) [nM] | Ki (Carbonic anhydrase 13) [nM] | Ki [2] [nM] | Ki (Carbonic anhydrase 7) [nM]
1 | NS(=O)(=O)OCCCCCCCCOS(N)(=O)=O | 1460 | 605 | 7.9 | 1020 | 1130 | 569 | 1200 | 
2 | NS(=O)(=O)OCCCCCCCCCCOS(N)(=O)=O |  |  |  |  |  | 960 |  | 
3 | CCCCCCCCCCOS(N)(=O)=O [DECYL SULFAMATE] |  |  |  |  |  | 956 |  | 
4 | CCCCCCCCOS(N)(=O)=O [OCTYL SULFAMATE] | 624 | 390 | 7 | 795 | 9100 | 1130 | 1250 | 76.6

Reference: ChEMBL document CHEMBL1155218, “Carbonic anhydrase inhibitors. Comparison of aliphatic sulfamate/bis-sulfamate adducts with isozymes II and IX as a platform for designing tight-binding, more isoform-selective inhibitors” (J Med Chem, 2009)
